# Measurements taken from PubChem BioAssay (NCI).
#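 Interpolation was linear, between the two tested concentrations surrounding the appropriate level; five concentrations were tested over 48 hours in 96-well plates. Definition used: TGI = concentration required for complete inhibition of growth.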
# Columns and labels:
# Assay in all cases: growth of human tumour cells (NCI), 48 h
# [1] = tested on: 786-0 renal
# [2] = tested on: A498 renal
# [3] = tested on: A549 NSCLC
# [4] = tested on: ACHN renal
# [5] = tested on: BT-549 breast
# [6] = tested on: CAKI-1 renal
# [7] = tested on: CCRF-CEM leukemia
# [8] = tested on: COLO 205 colon
# [9] = tested on: DU-145 prostate
# [10] = tested on: EKVX NSCLC
# [11] = tested on: HCT-116 colon
# [12] = tested on: HCT-15 colon
# [13] = tested on: HL-60(TB) leukemia
# [14] = tested on: HOP-62 NSCLC
# [15] = tested on: HOP-92 NSCLC
# [16] = tested on: HS 578T breast
# [17] = tested on: HT29 colon
# [18] = tested on: IGROV1 ovarian
# [19] = tested on: K-562 leukemia
# [20] = tested on: KM12 colon
# [21] = tested on: LOX IMVI melanoma
# [22] = tested on: M14 melanoma
# [23] = tested on: MALME-3M melanoma
# [24] = tested on: MCF7 breast
# [25] = tested on: MDA-MB-231 breast
# [26] = tested on: MDA-MB-435
# [27] = tested on: MDA-N
# [28] = tested on: MOLT-4 leukemia
# [29] = tested on: NCI-H226 lung
# [30] = tested on: NCI-H23 lung
# [31] = tested on: NCI-H522 lung
# [32] = tested on: NCI/ADR-RES ovarian
# [33] = tested on: OVCAR-3 ovarian
# [34] = tested on: OVCAR-4 ovarian
# [35] = tested on: OVCAR-5 ovarian
# [36] = tested on: OVCAR-8 ovarian
# [37] = tested on: PC-3 prostate
# [38] = tested on: RPMI-8226 leukemia
# [39] = tested on: SF-268 CNS
# [40] = tested on: SF-295 CNS
# [41] = tested on: SF-539 CNS
# [42] = tested on: SK-MEL-2 melanoma
# [43] = tested on: SK-MEL-28 melanoma
# [44] = tested on: SK-MEL-5 melanoma
# [45] = tested on: SK-OV-3 ovarian
# [46] = tested on: SN12C renal
# [47] = tested on: SNB-19 CNS
# [48] = tested on: SR leukemia
# [49] = tested on: SW-620 colon
# [50] = tested on: T-47D breast
# [51] = tested on: TK-10 renal
# [52] = tested on: U251 CNS
# [53] = tested on: UACC-257 melanoma
# [54] = tested on: UACC-62 melanoma
# [55] = tested on: UO-31 renal
# [56] = tested on: HCC-2998 colon
# [57] = tested on: NCI-H460 lung
# [58] = tested on: RXF 393 renal
# [59] = tested on: SNB-75 CNS
compound,measurement,setting,value
COc1ccc2c3c1O[C@H]1[C@@H](O)CC[C@@]4(O)[C@@H](C2)N(C)CC[C@]314,TGI,[1],> 100 µM
same,TGI,[2],> 100 µM
same,TGI,[3],> 100 µM
same,TGI,[4],> 100 µM
same,TGI,[5],> 100 µM
same,TGI,[6],> 100 µM
same,TGI,[7],> 100 µM
same,TGI,[8],> 100 µM
same,TGI,[9],> 100 µM
same,TGI,[10],> 100 µM
same,TGI,[11],> 100 µM
same,TGI,[12],> 100 µM
same,TGI,[13],> 100 µM
same,TGI,[14],> 100 µM
same,TGI,[15],> 100 µM
same,TGI,[16],> 100 µM
same,TGI,[17],> 100 µM
same,TGI,[18],> 100 µM
same,TGI,[19],> 100 µM
same,TGI,[20],> 100 µM
same,TGI,[21],> 100 µM
same,TGI,[22],> 100 µM
same,TGI,[23],> 100 µM
same,TGI,[24],> 100 µM
same,TGI,[25],> 100 µM
same,TGI,[26],> 100 µM
same,TGI,[27],> 100 µM
same,TGI,[28],> 100 µM
same,TGI,[29],> 100 µM
same,TGI,[30],> 100 µM
same,TGI,[31],> 100 µM
same,TGI,[32],> 100 µM
same,TGI,[33],> 100 µM
same,TGI,[34],> 100 µM
same,TGI,[35],> 100 µM
same,TGI,[36],> 100 µM
same,TGI,[37],> 100 µM
same,TGI,[38],> 100 µM
same,TGI,[39],> 100 µM
same,TGI,[40],> 100 µM
same,TGI,[41],> 100 µM
same,TGI,[42],> 100 µM
same,TGI,[43],> 100 µM
same,TGI,[44],> 100 µM
same,TGI,[45],> 100 µM
same,TGI,[46],> 100 µM
same,TGI,[47],> 100 µM
same,TGI,[48],> 100 µM
same,TGI,[49],> 100 µM
same,TGI,[50],> 100 µM
same,TGI,[51],> 100 µM
same,TGI,[52],> 100 µM
same,TGI,[53],> 100 µM
same,TGI,[54],> 100 µM
same,TGI,[55],> 100 µM
O=C1NN=C2C=C(c3ccc(Cl)cc3)CC(c3cccc(Br)c3)C12 (configuration not stated),TGI,[1],> 100 µM
same,TGI,[3],> 100 µM
same,TGI,[4],> 100 µM
same,TGI,[5],> 100 µM
same,TGI,[6],> 100 µM
same,TGI,[7],56.5 µM
same,TGI,[8],> 100 µM
same,TGI,[9],> 100 µM
same,TGI,[10],> 100 µM
same,TGI,[56],> 100 µM
same,TGI,[11],> 100 µM
same,TGI,[12],61.7 µM
same,TGI,[13],> 100 µM
same,TGI,[14],> 100 µM
same,TGI,[15],31.3 µM
same,TGI,[16],68.1 µM
same,TGI,[17],> 100 µM
same,TGI,[18],> 100 µM
same,TGI,[19],> 100 µM
same,TGI,[20],> 100 µM
same,TGI,[21],> 100 µM
same,TGI,[22],> 100 µM
same,TGI,[23],> 100 µM
same,TGI,[24],> 100 µM
same,TGI,[25],> 100 µM
same,TGI,[26],> 100 µM
same,TGI,[27],> 100 µM
same,TGI,[28],> 100 µM
same,TGI,[29],> 100 µM
same,TGI,[30],> 100 µM
same,TGI,[57],> 100 µM
same,TGI,[31],> 100 µM
same,TGI,[32],> 100 µM
same,TGI,[33],> 100 µM
same,TGI,[34],> 100 µM
same,TGI,[35],> 100 µM
same,TGI,[36],> 100 µM
same,TGI,[37],> 100 µM
same,TGI,[38],> 100 µM
same,TGI,[58],> 100 µM
same,TGI,[39],> 100 µM
same,TGI,[40],> 100 µM
same,TGI,[41],> 100 µM
same,TGI,[42],> 100 µM
same,TGI,[44],> 100 µM
same,TGI,[45],> 100 µM
same,TGI,[46],> 100 µM
same,TGI,[47],57.7 µM
same,TGI,[59],> 100 µM
same,TGI,[48],> 100 µM
same,TGI,[49],> 100 µM
same,TGI,[50],> 100 µM
same,TGI,[51],> 100 µM
same,TGI,[52],> 100 µM
same,TGI,[53],67 µM
same,TGI,[54],> 100 µM
same,TGI,[55],> 100 µM
